Laboratory results: paper PMC6979384, “Characterization of the plant homeodomain (PHD) reader family for their histone tail interactions” (Epigenetics & Chromatin, 2020)

Experiments:
Test in all cases: Histone peptide microarray
Format in all cases: binding, human
AIRE (PP) = settings: total n = 4; for Array Heatmap signal, AIRE (PP): sheet "Array Heatmap", GST-tagged reader, histone peptide array
Summary of the method: (§1)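 Binding read as mean relative signal from 4 replicates; microarray held 293 synthetic histone peptides with single or combinatorial PTMs. Each GST-tagged PHD reader was applied at 0.5 μM using the optimized Petell protocol.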

BAZ2B = settings: total n = 4; for Array Heatmap signal, BAZ2B: sheet "Array Heatmap", GST-tagged reader, histone peptide array
Summary of the method: as §1

BPTF (PB) = settings: total n = 4; for Array Heatmap signal, BPTF (PB): sheet "Array Heatmap", GST-tagged reader, histone peptide array
Summary of the method: as §1

CHD4 (PPCC) = settings: total n = 4; for Array Heatmap signal, CHD4 (PPCC): sheet "Array Heatmap", GST-tagged reader, histone peptide array
Summary of the method: as §1

CHD5 (PCC) = settings: total n = 4; for Array Heatmap signal, CHD5 (PCC): sheet "Array Heatmap", GST-tagged reader, histone peptide array
Summary of the method: as §1

CHD5 (PPCC) = settings: total n = 4; for Array Heatmap signal, CHD5 (PPCC): sheet "Array Heatmap", GST-tagged reader, histone peptide array
Summary of the method: as §1

DIDO1 = settings: total n = 4; for Array Heatmap signal, DIDO1: sheet "Array Heatmap", GST-tagged reader, histone peptide array
Summary of the method: as §1

DPF2 (PPC2W2) = settings: total n = 4; for Array Heatmap signal, DPF2 (PPC2W2): sheet "Array Heatmap", GST-tagged reader, histone peptide array
Summary of the method: as §1

ING1 = settings: total n = 4; for Array Heatmap signal, ING1: sheet "Array Heatmap", GST-tagged reader, histone peptide array
Summary of the method: as §1

ING2 = settings: total n = 4; for Array Heatmap signal, ING2: sheet "Array Heatmap", GST-tagged reader, histone peptide array
Summary of the method: as §1

ING3 = settings: total n = 4; for Array Heatmap signal, ING3: sheet "Array Heatmap", GST-tagged reader, histone peptide array
Summary of the method: as §1

ING4 = settings: total n = 4; for Array Heatmap signal, ING4: sheet "Array Heatmap", GST-tagged reader, histone peptide array
Summary of the method: as §1

ING5 = settings: total n = 4; for Array Heatmap signal, ING5: sheet "Array Heatmap", GST-tagged reader, histone peptide array
Summary of the method: as §1

KDM4C (TTP) = settings: total n = 4; for Array Heatmap signal, KDM4C (TTP): sheet "Array Heatmap", GST-tagged reader, histone peptide array
Summary of the method: as §1

KDM5A (1) = settings: total n = 4; for Array Heatmap signal, KDM5A (1): sheet "Array Heatmap", GST-tagged reader, histone peptide array
Summary of the method: as §1

KDM5A (3) = settings: total n = 4; for Array Heatmap signal, KDM5A (3): sheet "Array Heatmap", GST-tagged reader, histone peptide array
Summary of the method: as §1

KDM5B (1) = settings: total n = 4; for Array Heatmap signal, KDM5B (1): sheet "Array Heatmap", GST-tagged reader, histone peptide array
Summary of the method: as §1

KDM5B (3) = settings: total n = 4; for Array Heatmap signal, KDM5B (3): sheet "Array Heatmap", GST-tagged reader, histone peptide array
Summary of the method: as §1

KDM7A = settings: total n = 4; for Array Heatmap signal, KDM7A: sheet "Array Heatmap", GST-tagged reader, histone peptide array
Summary of the method: as §1

MLL5 = settings: total n = 4; for Array Heatmap signal, MLL5: sheet "Array Heatmap", GST-tagged reader, histone peptide array
Summary of the method: as §1

MORC3 (CW) = settings: total n = 4; for Array Heatmap signal, MORC3 (CW): sheet "Array Heatmap", GST-tagged reader, histone peptide array
Summary of the method: as §1

PHF13 = settings: total n = 4; for Array Heatmap signal, PHF13: sheet "Array Heatmap", GST-tagged reader, histone peptide array
Summary of the method: as §1

PHF21A = settings: total n = 4; for Array Heatmap signal, PHF21A: sheet "Array Heatmap", GST-tagged reader, histone peptide array
Summary of the method: as §1

PHF23 = settings: total n = 4; for Array Heatmap signal, PHF23: sheet "Array Heatmap", GST-tagged reader, histone peptide array
Summary of the method: as §1

PHF2 = settings: total n = 4; for Array Heatmap signal, PHF2: sheet "Array Heatmap", GST-tagged reader, histone peptide array
Summary of the method: as §1

PHF8 = settings: total n = 4; for Array Heatmap signal, PHF8: sheet "Array Heatmap", GST-tagged reader, histone peptide array
Summary of the method: as §1

PHRF1 (RP) = settings: total n = 4; for Array Heatmap signal, PHRF1 (RP): sheet "Array Heatmap", GST-tagged reader, histone peptide array
Summary of the method: as §1

RAG2 = settings: total n = 4; for Array Heatmap signal, RAG2: sheet "Array Heatmap", GST-tagged reader, histone peptide array
Summary of the method: as §1

SP140L = settings: total n = 4; for Array Heatmap signal, SP140L: sheet "Array Heatmap", GST-tagged reader, histone peptide array
Summary of the method: as §1

TAF3 = settings: total n = 4; for Array Heatmap signal, TAF3: sheet "Array Heatmap", GST-tagged reader, histone peptide array
Summary of the method: as §1

TRIM66 (PB) = settings: total n = 4; for Array Heatmap signal, TRIM66 (PB): sheet "Array Heatmap", GST-tagged reader, histone peptide array
Summary of the method: as §1

H3K9ac + K14ac: H3 1-20
Array Heatmap signal (histone peptide microarray) (AIRE (PP); GST-tagged AIRE (PP), sheet Array Heatmap, each array performed twice): 0.699 | Array Heatmap signal (histone peptide microarray) (BAZ2B; GST-tagged BAZ2B, sheet Array Heatmap, each array performed twice): 1 | Array Heatmap signal (histone peptide microarray) (BPTF (PB); GST-tagged BPTF (PB = PHD + Bromodomain), sheet Array Heatmap, each array performed twice): 0.3651 | Array Heatmap signal (histone peptide microarray) (CHD4 (PPCC); GST-tagged CHD4 (PPCC = Dual PHD + Dual Chromodomain), sheet Array Heatmap, each array performed twice): 0.673 | Array Heatmap signal (histone peptide microarray) (CHD5 (PCC); GST-tagged CHD5 (PCC = PHD + Dual Chromodomain), sheet Array Heatmap, each array performed twice): 0.9958 | Array Heatmap signal (histone peptide microarray) (CHD5 (PPCC); GST-tagged CHD5 (PPCC = Dual PHD + Dual Chromodomain), sheet Array Heatmap, each array performed twice): 0.6001 | Array Heatmap signal (histone peptide microarray) (DIDO1; GST-tagged DIDO1, sheet Array Heatmap, each array performed twice): 0.6252 | Array Heatmap signal (histone peptide microarray) (DPF2 (PPC2W2); GST-tagged DPF2 (PPC2W2 = Dual PHD + C2W2-type Zn-finger), sheet Array Heatmap, each array performed twice): 1 | Array Heatmap signal (histone peptide microarray) (ING1; GST-tagged ING1, sheet Array Heatmap, each array performed twice): 0.5104 | Array Heatmap signal (histone peptide microarray) (ING2; GST-tagged ING2, sheet Array Heatmap, each array performed twice): 0.5932 | Array Heatmap signal (histone peptide microarray) (ING3; GST-tagged ING3, sheet Array Heatmap, each array performed twice): 0.4549 | Array Heatmap signal (histone peptide microarray) (ING4; GST-tagged ING4, sheet Array Heatmap, each array performed twice): 0.4734 | Array Heatmap signal (histone peptide microarray) (ING5; GST-tagged ING5, sheet Array Heatmap, each array performed twice): 0.3504 | Array Heatmap signal (histone peptide microarray) (KDM4C (TTP); GST-tagged KDM4C (TTP = Tandem Tudor domain + PHD), sheet Array Heatmap, each array performed twice): 0.5191 | Array Heatmap signal (histone peptide microarray) (KDM5A (1); GST-tagged KDM5A (1), sheet Array Heatmap, each array performed twice): 0.5569 | Array Heatmap signal (histone peptide microarray) (KDM5A (3); GST-tagged KDM5A (3), sheet Array Heatmap, each array performed twice): 0.5178 | Array Heatmap signal (histone peptide microarray) (KDM5B (1); GST-tagged KDM5B (1), sheet Array Heatmap, each array performed twice): 0.9142 | Array Heatmap signal (histone peptide microarray) (KDM5B (3); GST-tagged KDM5B (3), sheet Array Heatmap, each array performed twice): 0.6203 | Array Heatmap signal (histone peptide microarray) (KDM7A; GST-tagged KDM7A, sheet Array Heatmap, each array performed twice): 0.4362 | Array Heatmap signal (histone peptide microarray) (MLL5; GST-tagged MLL5, sheet Array Heatmap, each array performed twice): 0.5394 | Array Heatmap signal (histone peptide microarray) (MORC3 (CW); GST-tagged MORC3 (CW = CW-type Zn-finger), sheet Array Heatmap, each array performed twice): 0.5873 | Array Heatmap signal (histone peptide microarray) (PHF13; GST-tagged PHF13, sheet Array Heatmap, each array performed twice): 0.6041 | Array Heatmap signal (histone peptide microarray) (PHF21A; GST-tagged PHF21A, sheet Array Heatmap, each array performed twice): 0.5392 | Array Heatmap signal (histone peptide microarray) (PHF23; GST-tagged PHF23, sheet Array Heatmap, each array performed twice): 0.5024 | Array Heatmap signal (histone peptide microarray) (PHF2; GST-tagged PHF2, sheet Array Heatmap, each array performed twice): 0.4774 | Array Heatmap signal (histone peptide microarray) (PHF8; GST-tagged PHF8, sheet Array Heatmap, each array performed twice): 0.3842 | Array Heatmap signal (histone peptide microarray) (PHRF1 (RP); GST-tagged PHRF1 (RP), sheet Array Heatmap, each array performed twice): 1 | Array Heatmap signal (histone peptide microarray) (RAG2; GST-tagged RAG2, sheet Array Heatmap, each array performed twice): 0.2862 | Array Heatmap signal (histone peptide microarray) (SP140L; GST-tagged SP140L, sheet Array Heatmap, each array performed twice): 0.3541 | Array Heatmap signal (histone peptide microarray) (TAF3; GST-tagged TAF3, sheet Array Heatmap, each array performed twice): 0.3149 | Array Heatmap signal (histone peptide microarray) (TRIM66 (PB); GST-tagged TRIM66 (PB = PHD + Bromodomain), sheet Array Heatmap, each array performed twice): 0.9112

H3K9ac + S10p: H3 1-20
Array Heatmap signal, AIRE (PP) (AIRE (PP)): 0.6057 | Array Heatmap signal, BAZ2B (BAZ2B): 0.4929 | Array Heatmap signal, BPTF (PB) (BPTF (PB)): 0.3364 | Array Heatmap signal, CHD4 (PPCC) (CHD4 (PPCC)): 0.5496 | Array Heatmap signal, CHD5 (PCC) (CHD5 (PCC)): 0.846 | Array Heatmap signal, CHD5 (PPCC) (CHD5 (PPCC)): 0.5687 | Array Heatmap signal, DIDO1 (DIDO1): 0.6052 | Array Heatmap signal, DPF2 (PPC2W2) (DPF2 (PPC2W2)): 0.6808 | Array Heatmap signal, ING1 (ING1): 0.4982 | Array Heatmap signal, ING2 (ING2): 0.597 | Array Heatmap signal, ING3 (ING3): 0.4478 | Array Heatmap signal, ING4 (ING4): 0.4766 | Array Heatmap signal, ING5 (ING5): 0.3597 | Array Heatmap signal, KDM4C (TTP) (KDM4C (TTP)): 0.5441 | Array Heatmap signal, KDM5A (1) (KDM5A (1)): 0.5046 | Array Heatmap signal, KDM5A (3) (KDM5A (3)): 0.462 | Array Heatmap signal, KDM5B (1) (KDM5B (1)): 0.6761 | Array Heatmap signal, KDM5B (3) (KDM5B (3)): 0.53 | Array Heatmap signal, KDM7A (KDM7A): 0.5012 | Array Heatmap signal, MLL5 (MLL5): 0.5353 | Array Heatmap signal, MORC3 (CW) (MORC3 (CW)): 0.3729 | Array Heatmap signal, PHF13 (PHF13): 0.5949 | Array Heatmap signal, PHF21A (PHF21A): 0.4788 | Array Heatmap signal, PHF23 (PHF23): 0.5104 | Array Heatmap signal, PHF2 (PHF2): 0.4212 | Array Heatmap signal, PHF8 (PHF8): 0.3696 | Array Heatmap signal, PHRF1 (RP) (PHRF1 (RP)): 0.4935 | Array Heatmap signal, RAG2 (RAG2): 0.2427 | Array Heatmap signal, SP140L (SP140L): 0.3709 | Array Heatmap signal, TAF3 (TAF3): 0.2808 | Array Heatmap signal, TRIM66 (PB) (TRIM66 (PB)): 0.5818

H3K9me1: H3 1-20 [Peptide H3K9me1]
Array Heatmap signal, AIRE (PP) (AIRE (PP)): 0.5694 | Array Heatmap signal, BAZ2B (BAZ2B): 0.4746 | Array Heatmap signal, BPTF (PB) (BPTF (PB)): 0.3459 | Array Heatmap signal, CHD4 (PPCC) (CHD4 (PPCC)): 0.6171 | Array Heatmap signal, CHD5 (PCC) (CHD5 (PCC)): 0.8558 | Array Heatmap signal, CHD5 (PPCC) (CHD5 (PPCC)): 0.5585 | Array Heatmap signal, DIDO1 (DIDO1): 0.6415 | Array Heatmap signal, DPF2 (PPC2W2) (DPF2 (PPC2W2)): 0.6871 | Array Heatmap signal, ING1 (ING1): 0.4934 | Array Heatmap signal, ING2 (ING2): 0.5783 | Array Heatmap signal, ING3 (ING3): 0.4876 | Array Heatmap signal, ING4 (ING4): 0.4656 | Array Heatmap signal, ING5 (ING5): 0.3437 | Array Heatmap signal, KDM4C (TTP) (KDM4C (TTP)): 0.5061 | Array Heatmap signal, KDM5A (1) (KDM5A (1)): 0.4835 | Array Heatmap signal, KDM5A (3) (KDM5A (3)): 0.4739 | Array Heatmap signal, KDM5B (1) (KDM5B (1)): 0.68 | Array Heatmap signal, KDM5B (3) (KDM5B (3)): 0.4949 | Array Heatmap signal, KDM7A (KDM7A): 0.3983 | Array Heatmap signal, MLL5 (MLL5): 0.5407 | Array Heatmap signal, MORC3 (CW) (MORC3 (CW)): 0.4491 | Array Heatmap signal, PHF13 (PHF13): 0.594 | Array Heatmap signal, PHF21A (PHF21A): 0.4979 | Array Heatmap signal, PHF23 (PHF23): 0.5057 | Array Heatmap signal, PHF2 (PHF2): 0.4569 | Array Heatmap signal, PHF8 (PHF8): 0.3494 | Array Heatmap signal, PHRF1 (RP) (PHRF1 (RP)): 0.6479 | Array Heatmap signal, RAG2 (RAG2): 0.2526 | Array Heatmap signal, SP140L (SP140L): 0.3427 | Array Heatmap signal, TAF3 (TAF3): 0.2561 | Array Heatmap signal, TRIM66 (PB) (TRIM66 (PB)): 0.6422
